Source: patent US9718828B2 (MERCK SHARP & DOHME CORP., priority 2011, dated 2017)
Structures can show the parent of a compound that is named as a salt.

These compounds were tested against Btk enzyme (His-Btk) (Homo sapiens (Human), UniProt Q06187) (assay: Btk enzyme activity, IMAP fluorescence polarization assay (Assay Method A)). Details: not given.
Btk enzyme (His-Btk), sequence (Q06187 whole entry): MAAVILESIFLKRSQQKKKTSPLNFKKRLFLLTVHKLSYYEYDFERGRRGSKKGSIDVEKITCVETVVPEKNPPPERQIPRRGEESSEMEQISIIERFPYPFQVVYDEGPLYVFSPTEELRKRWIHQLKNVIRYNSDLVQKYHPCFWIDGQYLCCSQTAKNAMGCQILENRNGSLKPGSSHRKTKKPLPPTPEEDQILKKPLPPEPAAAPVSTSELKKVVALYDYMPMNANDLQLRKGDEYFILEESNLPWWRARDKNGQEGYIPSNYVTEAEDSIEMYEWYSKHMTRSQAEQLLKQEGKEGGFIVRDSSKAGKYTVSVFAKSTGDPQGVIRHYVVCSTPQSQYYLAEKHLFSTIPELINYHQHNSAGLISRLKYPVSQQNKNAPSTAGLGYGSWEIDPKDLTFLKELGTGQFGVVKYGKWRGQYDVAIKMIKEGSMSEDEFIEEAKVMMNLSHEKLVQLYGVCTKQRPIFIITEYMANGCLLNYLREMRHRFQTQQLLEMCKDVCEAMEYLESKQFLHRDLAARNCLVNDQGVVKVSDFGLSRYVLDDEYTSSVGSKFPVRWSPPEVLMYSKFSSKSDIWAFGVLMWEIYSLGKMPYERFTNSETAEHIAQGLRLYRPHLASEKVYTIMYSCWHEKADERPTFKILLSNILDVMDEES

Row | EC50 [nM] | Compound
1 | 10 to 100 | CN(C)CCCC(=O)N1CCC[C@@H](c2nc(-c3ccc(C(=O)Nc4ccccn4)cc3)c3c(N)nccn23)C1 [Example 51, (R)-4-(8-amino-3-(1-(4-(dimethylamino)butanoyl)piperi-din-3-yl)imidazo[1,5-a]pyrazin-1-yl)-N-(pyridin-2-yl)benzamide]
2 | < 10 | CC(C)(CO)C(=O)N1CCC[C@@H](c2nc(-c3ccc(C(=O)Nc4cc(C(F)(F)F)ccn4)cc3)c3c(N)nccn23)C1 [Example 78, (R)-4-(8-amino-3-(1-(3-hydroxy-2,2-dimethylpropanoyl)piperidin-3-yl)imidazo[1,5-a]pyrazin-1-yl)-N-(4-(trifluoromethyl)pyridin-2-yl)benzamide]
3 | 100 to 1000 | Nc1nccn2c1c(-c1ccc(C(=O)Nc3ccccn3)c3ccccc13)nc2[C@H]1CC[C@H](O)CC1 [Example 22, 4-(8-amino-3-((trans)-4-hydroxycyclohexyl)imidazo[1,5-a]pyrazin-1-yl)-N-(pyridin-2-yl)-1-naphthamide]
4 | 10 to 100 | CC1(C(=O)N2CCC[C@@H](c3nc(-c4ccc(C(=O)Nc5cc(C(F)(F)F)ccn5)cc4)c4c(N)ncc(C5CC5)n34)C2)COC1 [Example 303, (R)-4-(8-amino-5-cyclopropyl-3-(1-(3-methyloxetane-3-carbonyl)piperidin-3-yl)imidazo[1,5-a]pyrazin-1-yl)-N-(4-(trifluoromethyl)pyridin-2-yl)benzamide]
5 | 10 to 100 | Nc1nccn2c([C@@H]3CCCN(Cc4ccc[nH]4)C3)nc(-c3ccc(C(=O)Nc4cc(C5CC5)ccn4)cc3)c12 [Example 144, (R)-4-(3-(1-((1H-pyrrol-2-yl)methyl)piperidin-3-yl)-8-aminoimidazo[1,5-a]pyrazin-1-yl)-N-(4-cyclopropylpyridin-2-yl)benzamide, TFA salt]
6 | 100 to 1000 | Nc1nccn2c([C@@H]3CCN(C(=O)C4CCOC4)C3)nc(-c3ccc(C(=O)Nc4ccccn4)cc3)c12 (stereo partly drawn) [Example 128, (R)-4-(8-amino-3-(1-(tetrahydrofuran-3-carbonyl)pyrrolidin-3-yl)imidazo[1,5-a]pyrazin-1-yl)-N-(pyridin-2-yl)benzamide, TFA salt]
7 | 10 to 100 | N#Cc1ccnc(NC(=O)c2ccc(-c3nc(C4CCOC4)n4ccnc(N)c34)cc2)c1 (stereo not drawn) [Example 33, 4-(8-amino-3-(tetrahydrofuran-3-yl)imidazo[1,5-a]pyrazin-1-yl)-N-(4-cyanopyridin-2-yl)benzamide]
8 | < 10 | NCCOCCOCCOCCOCCC(=O)N1CCC[C@@H](c2nc(-c3ccc(C(=O)Nc4cc(C(F)(F)F)ccn4)cc3)c3c(N)nccn23)C1 [Example 85, (R)-4-(8-amino-3-(1-(1-amino-3,6,9,12-tetraoxapentadecane)piperidin-3-yl)imidazo[1,5-a]pyrazin-1-yl)-N-(4-(trifluoromethyl)pyridin-2-yl)benzamide]
9 | 10 to 100 | CCc1cnc(NC(=O)c2ccc(-c3nc([C@H]4CC[C@H](OC(C)=O)CC4)n4ccnc(N)c34)cc2)s1 [Example 38, (trans)-4-(8-amino-1-(4-(5-ethylthiazol-2-ylcarbamoyl)phenyl)imidazo [1,5-a]pyrazin-3-yl)cyclohexyl acetate]
10 | 10 to 100 | CCN(CC)c1nc(-c2ccc(C(=O)Nc3cc(C#N)ccn3)cc2)c2c(N)nccn12 [Example 215, 4-(8-amino-3-(diethylamino)imidazo[1,5-a]pyrazin-1-yl)-N-(4-cyanopyridin-2-yl)benzamide]
11 | < 10 | CCCc1ccnc(NC(=O)c2ccc(-c3nc(C4CCOCC4)n4ccnc(N)c34)cc2)c1 [Example 24, 4-(8-amino-3-(tetrahydro-2H-pyran-4-yl)imidazo [1,5-a]pyrazin-1-yl)-N-(4-propylpyridin-2-yl)benzamide]
12 | 100 to 1000 | Cc1nc(-c2ccc(C(=O)Nc3cc(C(F)(F)F)ccn3)cc2)c2c(N)ncc(C(=O)NCc3cnco3)n12 [Example 297, 8-amino-3-methyl-N-(oxazol-5-ylmethyl)-1-(4-(4-(trifluoromethyl)pyridin-2-ylcarbamoyl)phenyl)imidazo[1,5-a]pyrazine-5-carboxamide]

Same assay, conditions: read-out: EC50 Btk activity values - Assay Method A; IMAP-FP, 60 min pre-incubation, 5 μM ATP; class 100-1000 is given as ≧100 nM-<1 μM

Row | EC50 [nM] | Compound
13 | < 10 | CCNC(=O)N1CCCC(c2cc(-c3ccc(C(=O)Nc4cc(C(F)(F)F)ccn4)cc3)c3c(N)ncnn23)C1 (stereo not drawn) [Example 252, 3-(4-amino-5-(4-(4-(trifluoromethyl)pyridin-2-ylcarbamoyl)phenyl)pyrrolo[1,2-f][1,2,4]triazin-7-yl)-N-ethylpiperidine-1-carboxamide]
14 | < 10 | Cc1cnc(N)c2c(-c3ccc(C(=O)Nc4cc(C(F)(F)F)ccn4)cc3)nc([C@@H]3CCCN(C(=O)C4(C)COC4)C3)n12 [Example 306, (R)-4-(8-amino-5-methyl-3-(1-(3-methyloxetane-3-carbonyl)piperidin-3-yl)imidazo[1,5-a]pyrazin-1-yl)-N-(4-(trifluoromethyl)pyridin-2-yl)benzamide]
15 | < 10 | Nc1nccn2c([C@@H]3CCCN(C(=O)Nc4ccccc4Cl)C3)nc(-c3ccc(C(=O)Nc4cc(C5CC5)ccn4)cc3)c12 [Example 120, (R)-3-(8-amino-1-(4-(4-cyclopropylpyridin-2-ylcarbamoyl)phenyl)imidazo [1,5-a]pyrazin-3-yl)-N-(2-chlorophenyl)piperidine-1-carboxamide]
16 | < 10 | Nc1nccn2c(N3CCCC(C(=O)NCC4CC4)C3)nc(-c3ccc(C(=O)Nc4cc(C5CC5)ccn4)cc3)c12 (stereo not drawn) [Example 245, 1-(8-amino-1-(4-(4-cyclopropylpyridin-2-ylcarbamoyl)phenyl)imidazo[1,5-a]pyrazin-3-yl)-N-(cyclopropylmethyl)piperidine-3-carboxamide, TFA salt]
17 | < 10 | Nc1nccn2c([C@H]3[C@@H]4COC[C@@H]43)nc(-c3ccc(C(=O)Nc4cc(C(F)(F)F)ccn4)cc3)c12 [Example 31, 4-(8-amino-34(1R,5S,6S)-3-oxabicyclo[3.1.0]hexan-6-yl)imidazo[1,5-a]pyrazin-1-yl)-N-(4-(trifluoromethyl)pyridin-2-yl)benzamide, TFA salt]
18 | < 10 | CO[C@H]1CC[C@@H](c2nc(-c3ccc(C(=O)Nc4cc(C(F)(F)F)ccn4)cc3)c3c(N)nccn32)CC1 [Example 40, 4-(8-amino-3-((cis)-4-methoxycyclohexyl)imidazo [1,5-a]pyrazin-1-yl)-N-(4-(trifluoromethyl)pyridin-2-yl)benzarnide]
19 | < 10 | Nc1nccn2c(C3CCCC3)nc(-c3ccc(C(=O)Nc4cc(C(F)(F)F)ccn4)cc3)c12 [Example 43, 4-(8-amino-3-cyclopentylimidazo[1,5-a]pyrazin-1-yl)-N-(4-(trifluoromethyl)pyridin-2-yl)benzamide, TFA salt]
20 | < 10 | CCC(=O)N1CCC[C@@H](n2nc(-c3ccc(C(=O)Nc4cc(C(F)(F)F)ccn4)cc3)c3c(N)ncnc32)C1 [Example 271, (R)-4-(4-amino-1-(1-propionylpiperidin-3-yl)-1H-pyrazolo[3,4-d]pyrimidin-3-yl)-N-(4-(trifluoromethyl)pyridin-2-yl)benzamide]
21 | < 10 | CONC(=O)C1CCCN(c2nc(-c3ccc(C(=O)Nc4cc(C(F)(F)F)ccn4)cc3)c3c(N)nccn23)C1 (stereo not drawn) [Example 242, 1-(8-amino-1-(4-(4-(trifluoromethyl)pyridin-2-ylcarbamoyl)phenyl)imidazo[1,5-a]pyrazin-3-yl)-N-methoxypiperidine-3-carboxamide, TFA salt]
